In assay [1] the target is T1, Protein cereblon/Serine/threonine-protein kinase PAK 1 (Homo sapiens) (UniProt Q13153+Q96SW2). Briefly: PROTAC activity at CRBN/PAK1 in human MDA-MB-231 cells assessed as fold change in protein expression at 2.5 uM incubated for 48 hrs by Western blot analysis relative to control. The assay is classed as cell-based. On the technique in general: A western blot detects proteins with antibodies after separation by electrophoresis.

The target of assay [2] is T1, Protein cereblon/Serine/threonine-protein kinase PAK 1 (Homo sapiens). Briefly: PROTAC activity at CRBN/PAK1 in human MDA-MB-231 cells assessed as induction of protein degradation at 2.5 uM incubated for 48 hrs by Western blot analysis relative to control. The format is cell-based.
Assay [3] has the same target. The assay can be described thus: PROTAC activity at CRBN/PAK1 in human MDA-MB-231 cells assessed as induction of protein degradation at 0.1 uM incubated for 48 hrs by Western blot analysis relative to control. The assay is classed as cell-based.
The test system of assay [4] is MDA-MB-231. The assay can be described thus: Antiproliferative activity against human MDA-MB-231 cells incubated for 48 hrs by MTT assay. The format is functional, cell-based. Conditions: MDA-MB-231, 48 h. In general terms: Formazan colour is commonly taken as a measure of viable cells.
In assay [5] the test system is MDA-MB-231. The assay can be described thus: Antiproliferative activity against human MDA-MB-231 cells. The format is functional, cell-based.
The target in assay [6] is Serine/threonine-protein kinase PAK 1 (Homo sapiens, UniProt Q13153). The assay can be described thus: Inhibition of PAK1 (unknown origin).
In assay [7] the test system is MDA-MB-231. The assay can be described thus: Inhibition of cell migration in human MDA-MB-231 cells at 2.5 uM incubated for 24 hrs by transwell assay. The format is functional, cell-based.
Assay [8] deals with MDA-MB-231. Briefly: Induction of apoptosis in human MDA-MB-231 cells assessed as viable cells at 2.5 uM incubated for 12 to 48 hrs by Annexin V-FITC/PI staining based flow cytometry (reference value: 97.0 %). The format is functional. Conditions: time 12-48 hrs, read-out: Activity.
Assay [9] concerns MDA-MB-231. Briefly: Inhibition of cell migration in human MDA-MB-231 cells at 2.5 uM incubated upto 48 hrs by wound healing assay. The assay is classed as functional, cell-based.
For assay [10], the system named is MDA-MB-231. Briefly: Inhibition of cell proliferation of human MDA-MB-231 cells at 2.5 uM by crystal violet staining based colony formation assay. The format is functional.
The subject of assay [11] is MDA-MB-231. The assay can be described thus: Inhibition of cell proliferation of human MDA-MB-231 cells at 2.5 uM by EdU staining based analysis. The format is functional.
The subject of assay [12] is MDA-MB-231. The assay can be described thus: Induction of apoptosis in human MDA-MB-231 cells assessed as necrotic cells at 2.5 uM incubated for 12 to 48 hrs by Annexin V-FITC/PI staining based flow cytometry (reference value: 0.43 %). Conditions: time 12-48 hrs. The assay is classed as functional. In general terms: Flow cytometry measures light scatter and fluorescence of single cells or particles in a stream.

For assay [13], the system named is MDA-MB-231. Briefly: Inhibition of 3D-spherioid formation of human MDA-MB-231 cells at 2.5 uM by crystal violet staining based colony formation assay. The assay is classed as functional, cell-based.
For assay [14], the system named is MDA-MB-231. Briefly: Induction of apoptosis in human MDA-MB-231 cells assessed as early apoptotic cells at 2.5 uM incubated for 12 to 48 hrs by Annexin V-FITC/PI staining based flow cytometry (reference value: 1.12 %). The assay is classed as functional. As to conditions: time 12-48 hrs.
Assay [15] deals with MDA-MB-231. The assay can be described thus: Inhibition of cell proliferation of human MDA-MB-231 cells assessed as decrease in Ki-67 expression at 2.5 uM incubated for 24 hrs by immunofluorescence based analysis. The format is functional.
For assay [16], the system named is MDA-MB-231. The assay can be described thus: Induction of apoptosis in human MDA-MB-231 cells assessed as late apoptotic cells at 2.5 uM incubated for 12 to 48 hrs by Annexin V-FITC/PI staining based flow cytometry (reference value: 1.48 %). Conditions: time 12-48 hrs. The assay is classed as functional.
Assay [17] deals with T2, von Hippel-Lindau disease tumor suppressor/Serine/threonine-protein kinase PAK 1 (Homo sapiens, UniProt Q13153+P40337). Briefly: PROTAC activity at VHL/PAK1 in human MDA-MB-231 cells assessed as induction of protein degradation at 0.1 uM incubated for 48 hrs by Western blot analysis relative to control. The format is cell-based.
Assay [18] has as its target T2, von Hippel-Lindau disease tumor suppressor/Serine/threonine-protein kinase PAK 1. Briefly: PROTAC activity at VHL/PAK1 in human MDA-MB-231 cells assessed as induction of protein degradation at 2.5 uM incubated for 48 hrs by Western blot analysis relative to control. The assay is classed as cell-based.
Assay [19] has the same target. Briefly: PROTAC activity at VHL/PAK1 in human MDA-MB-231 cells assessed as fold change in protein expression at 2.5 uM incubated for 48 hrs by Western blot analysis relative to control. The format is cell-based.

Active and inactive are the calls of the source. No cut-off for these calls is given here.

We go through 6 compounds from ChEMBL document CHEMBL6127034, “Design, synthesis and biological evaluation of a novel PAK1 degrader for the treatment of triple negative breast cancer” (Bioorg Med Chem, 2024).

T2 sequence (Q13153 2-545 limits assumed): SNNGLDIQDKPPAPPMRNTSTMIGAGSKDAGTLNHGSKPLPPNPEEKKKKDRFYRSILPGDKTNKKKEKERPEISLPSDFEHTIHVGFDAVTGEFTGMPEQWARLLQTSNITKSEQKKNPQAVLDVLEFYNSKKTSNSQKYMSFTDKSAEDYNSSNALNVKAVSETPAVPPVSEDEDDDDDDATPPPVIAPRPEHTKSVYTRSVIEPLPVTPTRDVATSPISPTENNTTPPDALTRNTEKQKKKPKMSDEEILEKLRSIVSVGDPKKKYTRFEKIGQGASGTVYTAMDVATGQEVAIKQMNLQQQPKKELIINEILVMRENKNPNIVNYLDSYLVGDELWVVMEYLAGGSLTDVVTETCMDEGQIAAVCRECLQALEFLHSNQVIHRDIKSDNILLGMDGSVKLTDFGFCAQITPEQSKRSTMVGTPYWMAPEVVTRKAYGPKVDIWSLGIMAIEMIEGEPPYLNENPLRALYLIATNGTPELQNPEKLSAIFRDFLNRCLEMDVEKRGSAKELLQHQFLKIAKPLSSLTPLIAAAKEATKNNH
T2 sequence (P40337 whole entry partner): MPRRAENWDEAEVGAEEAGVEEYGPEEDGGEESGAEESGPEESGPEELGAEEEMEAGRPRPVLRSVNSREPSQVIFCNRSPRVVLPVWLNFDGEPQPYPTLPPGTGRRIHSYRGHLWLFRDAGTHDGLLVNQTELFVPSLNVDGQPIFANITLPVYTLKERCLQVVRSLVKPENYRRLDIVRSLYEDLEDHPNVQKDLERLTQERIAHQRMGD
T1 sequence (Q13153 whole entry, looked up): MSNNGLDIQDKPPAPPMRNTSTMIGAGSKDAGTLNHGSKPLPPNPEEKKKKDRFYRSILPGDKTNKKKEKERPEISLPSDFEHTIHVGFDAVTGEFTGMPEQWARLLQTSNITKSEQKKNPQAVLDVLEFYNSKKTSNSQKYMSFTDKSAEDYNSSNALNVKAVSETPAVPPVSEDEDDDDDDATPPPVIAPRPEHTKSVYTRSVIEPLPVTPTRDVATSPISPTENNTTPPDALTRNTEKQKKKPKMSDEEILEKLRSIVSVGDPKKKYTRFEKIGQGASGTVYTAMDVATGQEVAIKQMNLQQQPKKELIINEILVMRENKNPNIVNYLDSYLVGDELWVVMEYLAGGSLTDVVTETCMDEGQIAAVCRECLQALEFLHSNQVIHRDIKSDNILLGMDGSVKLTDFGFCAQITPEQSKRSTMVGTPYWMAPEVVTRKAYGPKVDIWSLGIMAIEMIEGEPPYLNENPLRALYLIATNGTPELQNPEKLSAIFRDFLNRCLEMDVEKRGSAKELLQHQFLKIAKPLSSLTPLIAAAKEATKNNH
T1 sequence (Q96SW2 whole entry, looked up): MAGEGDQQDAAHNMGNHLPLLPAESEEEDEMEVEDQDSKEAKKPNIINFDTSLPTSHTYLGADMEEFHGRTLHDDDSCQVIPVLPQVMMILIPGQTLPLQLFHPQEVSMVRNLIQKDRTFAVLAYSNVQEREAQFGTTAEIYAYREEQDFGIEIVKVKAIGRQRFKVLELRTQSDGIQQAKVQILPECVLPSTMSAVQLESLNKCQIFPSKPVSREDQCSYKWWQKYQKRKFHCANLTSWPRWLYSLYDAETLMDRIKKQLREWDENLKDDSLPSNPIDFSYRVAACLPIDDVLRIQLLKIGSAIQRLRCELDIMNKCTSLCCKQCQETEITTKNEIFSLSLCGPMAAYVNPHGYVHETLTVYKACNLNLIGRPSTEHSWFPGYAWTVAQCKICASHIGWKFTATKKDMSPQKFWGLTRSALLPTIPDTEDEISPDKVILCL
Sequence of Serine/threonine-protein kinase PAK 1 (Q13153 whole entry): as the sequence (Q13153 whole entry, looked up) above

As a reminder, the IC50 is the point on the concentration scale where inhibition reaches its midpoint. A low value points to inhibition by little substance. Regarding `CNc1ncc2cc(-c3ccc(Cl)cc3Cl)c(=O)n(CCCCCCCn3cc(CNc4cccc5c4C(=O)N(C4CCC(=O)NC4=O)C5=O)nn3)c2n1` (stereo not given), the fold change (FC) in assay [1] came to 0.545. Moreover, the values for the Activity in [2] and in assay [3] were 45.5% and 23.1%, respectively. The same compound registered an IC50 with MDA-MB-231 [4] of 18.9 µM.
`CNc1ncc2cc(-c3ccc(Cl)cc3Cl)c(=O)[nH]c2n1`: the values for the half-maximal inhibitory concentration (IC50) (in the assay on MDA-MB-231 [5]; in assay [6]; with MDA-MB-231 [4]) were 28.6 µM, 52 nM and 28.6 µM, respectively.
On to `CCn1c(=O)c(-c2ccc(-c3cncs3)cc2Cl)cc2cnc(Nc3ccc(N4CCN(C)CC4)cc3)nc21`, for which the inhibition entry in the assay on MDA-MB-231 [7], in the assay with MDA-MB-231 [10], in the assay on MDA-MB-231 [11], in the assay on MDA-MB-231 [13] and in the assay with MDA-MB-231 [15] was “Active” in each case. In addition, the viability at 2.5 µM in the assay with MDA-MB-231 [8] worked out at 97.2%. In addition, the inhibition result in the assay on MDA-MB-231 [9] is “inactive”. For the same compound, the Activity was 0.058% with MDA-MB-231 [12], 1.67% in the assay on MDA-MB-231 [14] and 1.08% with MDA-MB-231 [16]. Besides, the IC50 in the assay on MDA-MB-231 [4] stood at 3.23 µM.
Turning to `CNc1ncc2cc(-c3ccc(Cl)cc3Cl)c(=O)n(CCCCCCn3cc(CNc4cccc5c4C(=O)N(C4CCC(=O)NC4=O)C5=O)nn3)c2n1` (stereo not given), the fold change (FC) in [1] was found to be 0.653. For the same compound, the Activity in assay [2] turned out to be 41.7%; in assay [3] it was 15.3%. In addition, half-maximal inhibition with MDA-MB-231 [4] (IC50) required 25.8 µM.
Consider `Cc1ncsc1-c1ccc([C@H](C)NC(=O)[C@@H]2C[C@@H](O)CN2C(=O)[C@@H](NC(=O)CCCCc2cn(CCCCCn3c(=O)c(-c4ccc(Cl)cc4Cl)cc4cnc(NC5CC5)nc43)nn2)C(C)(C)C)cc1`, for which the Activity in assay [17] worked out at 27.4%; in assay [18] it was 57%. For the same compound, the fold change (FC) in assay [19] was found to be 0.43. Also, inhibition in the assay with MDA-MB-231 [4] was half-maximal at 5.47 µM (IC50).
Take `O=C1CCC(N2C(=O)c3cccc(NCc4cn(CCCCCCCn5c(=O)c(-c6ccc(Cl)cc6Cl)cc6cnc(NC7CC7)nc65)nn4)c3C2=O)C(=O)N1` (stereo not given): in assay [1], the fold change (FC) was determined as 0.44. Moreover, the Activity in [2] was found to be 56.1%; in assay [3], 18.3%. For the same compound, half-maximal inhibition in the assay on MDA-MB-231 [4] (IC50) was put at 7.35 µM.
